# According to patent US20240317780A1, “RADIOPHARMACEUTICAL SOMATOSTATIN RECEPTOR LIGANDS AND PRECURSORS THEREOF” (Technische Universität München, priority 2021, published 2024):
# Read-outs that look alike come from different tables or passages of the source. Where a SMILES comes first, the peptide text is derived from it. Bridges are numbered along the chain shown (N, C = ends). [ ]: non-standard residue; d: D form. The star is where a group is joined. ξ: configuration not given here. X1 = CC(C)(C)[Si](F)(c1ccc(C[N+](C)(C)CC(=O)*)cc1)C(C)(C)C; DO3AM = NC(=O)CN1CCN(CC(N)=O)CCN(CC(=O)*)CCN(CC(N)=O)CC1; ξW = NC(Cc1c[nH]c2ccccc12)C(=O)O; dOrn = NCCC[C@@H](N)C(=O)O; ξF = NC(Cc1ccccc1)C(=O)O; ξT = CC(O)C(N)C(=O)O; ξDap = NCC(N)C(=O)O; ξC = NC(CS)C(=O)O
# Legend:
# SST2 = biological target: T1, SST2 (Homo sapiens, UniProt P30874); assay: Determination of IC50: competitive binding against [125I]TOC on SST2-transfected CHO cells; conditions: [125I]TOC reference radioligand, 60 min room temperature
# T1 construct: expressed in transfected cells; host or cells: CHO (Chinese hamster ovary) cells
# T1 sequence (P30874 whole entry, species assumed): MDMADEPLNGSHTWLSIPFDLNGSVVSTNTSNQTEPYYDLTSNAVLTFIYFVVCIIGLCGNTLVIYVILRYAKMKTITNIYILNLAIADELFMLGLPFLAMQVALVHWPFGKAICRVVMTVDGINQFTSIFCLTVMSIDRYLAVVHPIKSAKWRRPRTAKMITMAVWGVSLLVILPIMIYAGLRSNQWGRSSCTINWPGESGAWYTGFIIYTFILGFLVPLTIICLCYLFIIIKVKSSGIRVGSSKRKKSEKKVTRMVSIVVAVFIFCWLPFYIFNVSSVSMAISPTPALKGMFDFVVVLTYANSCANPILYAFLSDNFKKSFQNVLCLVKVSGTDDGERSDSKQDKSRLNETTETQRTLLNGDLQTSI
# Protocol: The SST2-transfected CHO cells were cultivated in Dulbecco's Modified Eagle Medium/Nutrient Mixture F-12 (DMEM/F-12) with Glutamax-I (1:1) (Gibco), supplemented with 10% fetal calf serum (FCS) and maintained at 37° C. in a humidified 5% CO2 atmosphere. […] After removal of the culture medium, the cells were treated once with 300 μL of HBSS-B (Hank's balanced salt solution, Biochrom, Berlin, Germany, with addition of 1% bovine serum albumin (BSA)) and left with 200 μL HBSS-B. Next, 25 μL per well of solutions, containing either HBSS-B (control) or the respective ligand in increasing concentration (10^−10-10^−4 M in HBSS-B, were added with subsequent addition of 25 μL of
# [^125I]TOC ([^125I]Tyr^3-Octreotide) (1.0 nM) in HBSS-B. Each concentration is investigated in triplicate. After 60 min incubation at room temperature, the experiment was terminated by removal of the assay medium and consecutive rinsing with 300 μL of cold PBS. The media of both steps were combined in one fraction and represent the amount of unbound radioligand.
# Afterwards, the cells were lysed with 300 μL of 1 M NaOH and united with the 300 μL 1 M NaOH of the following wash step. Quantification of bound and unbound radioligand was accomplished in a γ-counter.
# [1] = Biodistribution of 18F-labeled SST2 ligands in AR42J tumor-bearing mice; assay type: in vivo; conditions: female, CD1 nu/nu, mouse, iv, total radioactivity, 1 h post injection
# Protocol: All animal experiments were conducted in accordance with general animal welfare regulations in Germany and the institutional guidelines for the care and use of animals. To establish tumor xenografts, AR42J cells (5×10^6 cells/100 μL) were suspended in Dulbecco modified Eagle medium/Nutrition Mixture F-12 with Glutamax-1 (1:1) and inoculated subcutaneously onto the right shoulder of 8 weeks old, female CD1 nu/nu mice (Charles River, Sulzfeld, Germany). Mice were used for experiments when tumors had grown to a diameter of 5-9 mm (7-15 days after inoculation).
# Approximately 0.5-2.0 MBq (0.05-0.25 nmol) of the ^18F-labeled SST2-ligands were injected into the tail vein of AR42J tumor-bearing female CD1 nu/nu mice and sacrificed after 1 h post injection (n=3-5). Selected organs were removed, weighted and measured in a γ-counter.
# The Tables 4, 5, and 6 summarize the results of the in vivo mouse experiments. For all biodistribution studies, female CD1 nu/nu mice with AR42J tumor xenografts, were used and sacrificed 1 h post injection.
# [2] = AR42J tumor, AR42J tumor, tail vein, read-out: Tumor % ID/g ± SD
# [3] = adrenal glands, tail vein, read-out: Adrenal glands % ID/g ± SD
# [4] = blood, tail vein, read-out: Blood % ID/g ± SD
# [5] = bone, tail vein, read-out: Bone % ID/g ± SD
# [6] = heart, tail vein, read-out: Heart % ID/g ± SD
# [7] = intestine, tail vein, read-out: Intestine % ID/g ± SD
# [8] = kidneys, tail vein, read-out: Kidneys % ID/g ± SD
# [9] = liver, tail vein, read-out: Liver % ID/g ± SD
# [10] = lung, tail vein, read-out: Lung % ID/g ± SD
# [11] = muscle, tail vein, read-out: Muscle % ID/g ± SD
# [12] = pancreas, tail vein, read-out: Pancreas % ID/g ± SD
# [13] = spleen, tail vein, read-out: Spleen % ID/g ± SD
# [14] = stomach, tail vein, read-out: Stomach % ID/g ± SD
smiles,measurement,setting,value
"C[C@@H](O)[C@H](NC(=O)C1CSSCC(NC(=O)C(Cc2ccccc2)NC(=O)CNC(=O)CNC(=O)[C@@H](CC(=O)O)NC(=O)C(CC(=O)O)NC(=O)[C@@H](CNC(=O)CN2CCN(CC(=O)O)CCN(CC(=O)O)CCN(CC(=O)O)CC2)NC(=O)C(CN)NC(=O)c2ccc([Si](F)(C(C)(C)C)C(C)(C)C)cc2)C(=O)N[C@@H](Cc2ccc(O)cc2)C(=O)NC(Cc2c[nH]c3ccccc23)C(=O)N[C@@H](CCCCN)C(=O)N[C@@H]([C@@H](C)O)C(=O)N1)C(=O)O (some centres unmarked) (natGa complex, metal not drawn) [[Ga]19]",IC50,SST2,11.2 ± 1.04 nM
same,tissue uptake at 1 h,[1]; [2],36.3 ± 4.54 %ID/g
same,tissue uptake at 1 h,[1]; [3],2.56 ± 0.21 %ID/g
same,tissue uptake at 1 h,[1]; [4],2.24 ± 0.3 %ID/g
same,tissue uptake at 1 h,[1]; [5],1.96 ± 0.38 %ID/g
same,tissue uptake at 1 h,[1]; [6],0.88 ± 0.11 %ID/g
same,tissue uptake at 1 h,[1]; [7],1.39 ± 0.24 %ID/g
same,tissue uptake at 1 h,[1]; [8],131 ± 26.7 %ID/g
same,tissue uptake at 1 h,[1]; [9],2.47 ± 0.14 %ID/g
same,tissue uptake at 1 h,[1]; [10],4.84 ± 0.98 %ID/g
same,tissue uptake at 1 h,[1]; [11],0.27 ± 0.04 %ID/g
same,tissue uptake at 1 h,[1]; [12],12.5 ± 1.87 %ID/g
same,tissue uptake at 1 h,[1]; [13],0.93 ± 0.15 %ID/g
same,tissue uptake at 1 h,[1]; [14],7.99 ± 2.08 %ID/g
"C[C@@H](O)[C@H](NC(=O)C1CSSCC(NC(=O)C(Cc2ccccc2)NC(=O)CNC(=O)CNC(=O)[C@@H](CC(=O)O)NC(=O)C(CC(=O)O)NC(=O)[C@@H](CNC(=O)CN2CCN(CC(=O)O)CCN(CC(=O)O)CCN(CC(=O)O)CC2)NC(=O)C[N+](C)(C)Cc2ccc([Si](F)(C(C)(C)C)C(C)(C)C)cc2)C(=O)N[C@@H](Cc2ccc(O)cc2)C(=O)NC(Cc2c[nH]c3ccccc23)C(=O)N[C@@H](CCCCN)C(=O)N[C@@H]([C@@H](C)O)C(=O)N1)C(=O)O (some centres unmarked) (natGa complex, metal not drawn) [[Ga]24]",IC50,SST2,9.48 ± 1.96 nM
same,tissue uptake at 1 h,[1]; [2],23.9 ± 4.1 %ID/g
same,tissue uptake at 1 h,"[1]; AR42J tumor, AR42J tumor, Blocking study, read-out: Tumor % ID/g ± SD",6.1 ± 0.02 %ID/g
same,tissue uptake at 1 h,[1]; [3],1.52 ± 0.46 %ID/g
same,tissue uptake at 1 h,"[1]; adrenal glands, Blocking study, read-out: Adrenal glands % ID/g ± SD",0.54 ± 0.05 %ID/g
same,tissue uptake at 1 h,[1]; [4],0.66 ± 0.32 %ID/g
same,tissue uptake at 1 h,"[1]; blood, Blocking study, read-out: Blood % ID/g ± SD",1.24 ± 0.61 %ID/g
same,tissue uptake at 1 h,[1]; [5],1.32 ± 0.19 %ID/g
same,tissue uptake at 1 h,"[1]; bone, Blocking study, read-out: Bone % ID/g ± SD",0.77 ± 0.07 %ID/g
same,tissue uptake at 1 h,[1]; [6],0.34 ± 0.09 %ID/g
same,tissue uptake at 1 h,"[1]; heart, Blocking study, read-out: Heart % ID/g ± SD",0.53 %ID/g
same,tissue uptake at 1 h,[1]; [7],1.41 ± 0.19 %ID/g
same,tissue uptake at 1 h,"[1]; intestine, Blocking study, read-out: Intestine % ID/g ± SD",0.71 ± 0.04 %ID/g
same,tissue uptake at 1 h,[1]; [8],13.6 ± 3.58 %ID/g
same,tissue uptake at 1 h,"[1]; kidneys, Blocking study, read-out: Kidneys % ID/g ± SD",18.2 ± 2.03 %ID/g
same,tissue uptake at 1 h,[1]; [9],1.05 ± 0.22 %ID/g
same,tissue uptake at 1 h,"[1]; liver, Blocking study, read-out: Liver % ID/g ± SD",1.82 ± 0.22 %ID/g
same,tissue uptake at 1 h,[1]; [10],2.33 ± 0.1 %ID/g
same,tissue uptake at 1 h,"[1]; lung, Blocking study, read-out: Lung % ID/g ± SD",1.36 ± 0.13 %ID/g
same,tissue uptake at 1 h,[1]; [11],0.09 ± 0.04 %ID/g
same,tissue uptake at 1 h,"[1]; muscle, Blocking study, read-out: Muscle % ID/g ± SD",0.21 ± 0.01 %ID/g
same,tissue uptake at 1 h,[1]; [12],9.28 ± 0.57 %ID/g
same,tissue uptake at 1 h,"[1]; pancreas, Blocking study, read-out: Pancreas % ID/g ± SD",1.07 ± 0.02 %ID/g
same,tissue uptake at 1 h,[1]; [13],0.45 ± 0.05 %ID/g
same,tissue uptake at 1 h,"[1]; spleen, Blocking study, read-out: Spleen % ID/g ± SD",0.33 %ID/g
same,tissue uptake at 1 h,[1]; [14],4.95 ± 0.35 %ID/g
same,tissue uptake at 1 h,"[1]; stomach, Blocking study, read-out: Stomach % ID/g ± SD",1.01 ± 0.06 %ID/g
"C[C@@H](O)[C@H](NC(=O)C1CSSCC(NC(=O)C(Cc2ccccc2)NC(=O)CNC(=O)CNC(=O)CNC(=O)C(CC(=O)O)NC(=O)[C@@H](CC(=O)O)NC(=O)C(CCCCN)NC(=O)[C@@H](CNC(=O)C[N+](C)(C)Cc2ccc([Si](F)(C(C)(C)C)C(C)(C)C)cc2)NC(=O)CN2CCN(CC(=O)O)CCN(CC(=O)O)CCN(CC(=O)O)CC2)C(=O)N[C@@H](Cc2ccc(O)cc2)C(=O)NC(Cc2c[nH]c3ccccc23)C(=O)N[C@@H](CCCCN)C(=O)N[C@@H]([C@@H](C)O)C(=O)N1)C(=O)O (some centres unmarked) (natGa complex, metal not drawn) [[Ga]45]",IC50,SST2,4.3 ± 0.06 nM
same,tissue uptake at 1 h,[1]; [2],31.6 ± 4.96 %ID/g
same,tissue uptake at 1 h,[1]; [3],1.54 ± 0.28 %ID/g
same,tissue uptake at 1 h,[1]; [4],0.53 ± 0.23 %ID/g
same,tissue uptake at 1 h,[1]; [5],1.81 ± 0.07 %ID/g
same,tissue uptake at 1 h,[1]; [6],0.28 ± 0.04 %ID/g
same,tissue uptake at 1 h,[1]; [7],1.27 ± 0.13 %ID/g
same,tissue uptake at 1 h,[1]; [8],72.7 ± 7.68 %ID/g
same,tissue uptake at 1 h,[1]; [9],1.28 ± 0.11 %ID/g
same,tissue uptake at 1 h,[1]; [10],3.34 ± 0.49 %ID/g
same,tissue uptake at 1 h,[1]; [11],0.11 ± 0.02 %ID/g
same,tissue uptake at 1 h,[1]; [12],11.8 ± 1.36 %ID/g
same,tissue uptake at 1 h,[1]; [13],0.56 ± 0.1 %ID/g
same,tissue uptake at 1 h,[1]; [14],7.5 ± 0.13 %ID/g
"C[C@@H](O)[C@H](NC(=O)C1CSSCC(NC(=O)C(Cc2ccccc2)NC(=O)CNC(=O)CNC(=O)CNC(=O)C(CC(=O)O)NC(=O)[C@@H](CC(=O)O)NC(=O)C(CNC(=O)CN2CCN(CC(=O)O)CCN(CC(=O)O)CCN(CC(=O)O)CC2)NC(=O)[C@@H](CN)NC(=O)C[N+](C)(C)Cc2ccc([Si](F)(C(C)(C)C)C(C)(C)C)cc2)C(=O)N[C@@H](Cc2ccc(O)cc2)C(=O)NC(Cc2c[nH]c3ccccc23)C(=O)N[C@@H](CCCCN)C(=O)N[C@@H]([C@@H](C)O)C(=O)N1)C(=O)O (some centres unmarked) (natLu complex, metal not drawn) [[Lu]51]",IC50,SST2,3.09 ± 0.16 nM
"C[C@@H](O)[C@H](NC(=O)C1CSSCC(NC(=O)C(Cc2ccccc2)NC(=O)CNC(=O)CNC(=O)CNC(=O)C(CC(=O)O)NC(=O)[C@@H](CC(=O)O)NC(=O)C(CNC(=O)CN2CCN(CC(=O)O)CCN(CC(=O)O)CCN(CC(=O)O)CC2)NC(=O)[C@@H](CN)NC(=O)CNC(=O)C[N+](C)(C)Cc2ccc([Si](F)(C(C)(C)C)C(C)(C)C)cc2)C(=O)N[C@@H](Cc2ccc(O)cc2)C(=O)NC(Cc2c[nH]c3ccccc23)C(=O)N[C@@H](CCCCN)C(=O)N[C@@H]([C@@H](C)O)C(=O)N1)C(=O)O (some centres unmarked) (natLu complex, metal not drawn) [[Lu]52]",IC50,SST2,3.51 ± 0.41 nM
"C[C@@H](O)[C@H](NC(=O)C1CSSCC(NC(=O)C(Cc2ccccc2)NC(=O)CNC(=O)CNC(=O)CNC(=O)C(CC(=O)O)NC(=O)[C@@H](CC(=O)O)NC(=O)C(CNC(=O)CN2CCN(CC(=O)O)CCN(CC(=O)O)CCN(CC(=O)O)CC2)NC(=O)[C@@H](CN)NC(=O)CNC(=O)CNC(=O)C[N+](C)(C)Cc2ccc([Si](F)(C(C)(C)C)C(C)(C)C)cc2)C(=O)N[C@@H](Cc2ccc(O)cc2)C(=O)NC(Cc2c[nH]c3ccccc23)C(=O)N[C@@H](CCCCN)C(=O)N[C@@H]([C@@H](C)O)C(=O)N1)C(=O)O (some centres unmarked) (natLu complex, metal not drawn) [[Lu]53]",IC50,SST2,3.36 ± 0.27 nM
CC(O)C(NC(=O)C1CSSCC(NC(=O)C(Cc2ccccc2)NC(=O)CNC(=O)CNC(=O)CNC(=O)[C@@H](CCCN)NC(=O)[C@@H](CCCN)NC(=O)C(CNC(=O)CN2CCN(CC(N)=O)CCN(CC(N)=O)CCN(CC(N)=O)CC2)NC(=O)C[N+](C)(C)Cc2ccc([Si](F)(C(C)(C)C)C(C)(C)C)cc2)C(=O)N[C@@H](Cc2ccc(O)cc2)C(=O)NC(Cc2c[nH]c3ccccc23)C(=O)N[C@@H](CCCCN)C(=O)N[C@@H]([C@@H](C)O)C(=O)N1)C(=O)O (some centres unmarked) [[Pb]61] (X1-[ξDap](DO3AM)[dOrn][dOrn]GGG[ξF][ξC]Y[ξW]KT[ξC][ξT]-OH; disulfide 8-13),IC50,SST2,7.96 ± 0.28 nM
